Results as given in publication PMC12246082, “Structural basis for catalysis by human lipoyl synthase” (Nature Communications, 2025).
Ends that are not written are not given here. * marks the point of attachment. Octanoyl = CCCCCCCC(=O)*

T1: human LIAS (lipoyl synthase) (Homo sapiens, UniProt O43766)
T1 construct: residues 65-372, N-terminal His6-tag with 10-aa linker kept (pET-28a), E. coli BL21(DE3) with pDB1282; two [Fe4S4] clusters; monomeric in asymmetric unit of 8TRW
T1 sequence (O43766 65-372): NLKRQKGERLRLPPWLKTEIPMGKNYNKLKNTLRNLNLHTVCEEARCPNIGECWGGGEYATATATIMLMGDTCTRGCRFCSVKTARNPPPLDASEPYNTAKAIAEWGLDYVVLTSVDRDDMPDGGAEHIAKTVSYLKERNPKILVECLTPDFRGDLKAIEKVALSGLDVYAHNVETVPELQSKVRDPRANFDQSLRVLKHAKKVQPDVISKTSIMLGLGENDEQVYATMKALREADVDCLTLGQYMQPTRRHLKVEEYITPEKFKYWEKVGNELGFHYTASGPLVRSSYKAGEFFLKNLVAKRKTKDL

T2: truncated human lipoyl synthase (LIAS isoform 1, aa 65–372) (human)
T2 construct: lipoyl synthase (LIAS), human, isoform 1, residues 65-372; Holds two [Fe4S4] clusters (RS and auxiliary); in the complex with Hpro the auxiliary cluster is [Fe3S3:1 mercaptooctanoyllysyl]; also called human LIAS; trnLIAS; source: E. coli BL21 (DE3) co-transformed with pDB1282, purified anaerobically (Ni-NTA, size-exclusion S-200); not shown: His6 (separated from the protein by a ten aa linker), …
T2 chain: T1 sequence (O43766 65-372)

B1: octanoyl-containing eight amino acid peptide substrate mimic, Glu-Ser-Val-(N6-octanoyl)Lys-Ala-Ala-Ser-Asp (peptide)
peptide: ESVK(Octanoyl)AASD
notes: printed in three-letter code; human Hpro 104-111 is ESVKAASE; also called OCT-8mer; OCT-8-mer; source: synthetic peptide, custom-synthesized by Proimmune (Oxford, UK)

Columns and labels:
[1] = target: T1, human LIAS (lipoyl synthase); assay: X-ray crystal structure, […] Å; format: binding; conditions: co-crystallised with 5'-dAH and OCT-8mer, anaerobic; bidentate to unique Fe of radical SAM [Fe4S4] cluster
[2] = target: T2, truncated human lipoyl synthase (LIAS …); assay: crystal structure; LIAS (8 mg/ml) co-crystallised with 2.5 mM L-Met, 1 mM 5’-dAH and a 1.3x molar ratio of OCT-8mer; anaerobic, hanging drop, 0.1 M HEPES pH 7.5, 0.2 M Na2SO4, 30% PEG 3350, 3% trehalose; conditions: both partners purified

Row | Molecule | X-ray crystal structure, 1.58 Å [1] | binding result [2]
1 | CSCC[C@H](N)C(=O)O [Met, methionine] | The oxygen and nitrogen atoms of Met are coordinated to the unique iron | –
2 | B1 | – | binds
